From patent US20230277553A1, “THERAPEUTIC COMPOSITION OF CURE-PRO COMPOUNDS FOR TARGETED DEGRADATION OF BET DOMAIN PROTEINS, AND METHODS OF MAKING AND USAGE” (CORNELL UNIVERSITY, priority 2020, published 2023)
Entries after “also recorded” stand apart in the source; their conditions may differ.

How the values were obtained:
Assay type in all cases: cell-based
Namalwa cells = experiment: CellTiter-Glo cell viability, Namalwa cells; conditions: 72 hours, 1:1 with 8047, 10 nM-10 μM each
Experimental: CellTiter-Glo® 2.0 Cell Viability Assay (Promega) was carried out following the manufacturer's recommendations. Cells were seeded at a density of 1000 cells/well in a white 96 well plates (Corning, #3917) in a total volume of 100 μl with respective monomers, combinations of BRD ligands together with E3 ligase ligands or vehicle control treatment. After a 72 h incubation, 100 ul of the CellTiter-Glo® substrate was added per well and luminescence was read on a Spectramax M5 (Molecular Devices). Dose-response curves were generated using Graphpad Prism software.
Namalwa cells (1×104) were treated for 72 hours with the compounds solubilized in DMSO. Compounds were added at 10 nM-10 μM each. Cellular viability was determined using the CellTiter-Glo® Luminescent Cell Viability Assay (Promega) described above. FIG. 56 depicts the CURE-PRO-mediated loss of cellular viability for the BRD-E72 monomer (JQ1 derivatives comprising of boronic acid linkers), and the CRBN ligand, 8047 (a pomalidomide derivative comprising diol linkers) combined in a 1:1 ratio.

caspase 3/7 = experiment: Caspase-Glo 3/7 assay, Namalwa cells; conditions: 24 hours, 1:1 with 8047
Experimental: Caspase-glo® assay (Promega) was conducted following the manufacturer's recommendations. Cells were seeded at a density of 5000 cells/well in a white 96 well plates (Corning, #3917) in a total volume of 100 μl with respective monomers, combinations of BRD ligands together with E3 ligase ligands or vehicle control treatment. After a 24 h incubation, 100 μl of the […] substrate was added per well and luminescence was read on a Spectramax M5 (Molecular Devices).
Namalwa cells (5×104) were treated for 24 hours with the compounds solubilized in DMSO. FIG. 57 is a bar graph depiction of fold increase of apoptosis assessed via caspase 3/7 activity using the Caspase-glo assay (Promega) described above.
Molm-13 (FIG. 76A) or Namalwa (FIG. 76B) cells (5×10^4) were treated for 24 hours with the compounds solubilized in DMSO in white 96 well plates (10 nM-10 μM solubilized in DMSO). FIG. 76 is a bar graph depiction of fold increase of apoptosis assessed via caspase 3/7 activity using the Caspase-glo assay (Promega) described above.

BRD4 [1] = molecular target: T1, BRD4 (Homo sapiens, UniProt O60885); experiment: Summary of BRD4 degradation by CURE-PRO pairs, estimated from Western Blot or WES (Proteinsimple); parameters: endogenous in cells; conditions: Table 1; CRBN ligand, second drawing (8047)
Text: A black check mark indicates efficacy of 30% to 70% or higher protein degradation.

BRD4 [2] = molecular target: T1, BRD4; experiment: CURE-PRO-mediated BRD4 degradation, Western blot, HeLa cells; parameters: endogenous in cells; host or cells: HeLa; conditions: 24 h
In short: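 HeLa cells treated 24 h with compounds in DMSO (1-10 μM, 10 μM or 100 μM each; paired monomers combined 1:1), optional 15-min pretreatment with pomalidomide, VHL298, Nutlin3a (10 μM) or MG-132/carfilzomib (1 μM). RIPA lysates, 10-20 μg protein immunoblotted for BRD4 with β-actin, ECL detection.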

BRD4 [3] = molecular target: T1, BRD4; experiment: CURE-PRO-mediated BRD4 degradation, WES (ProteinSimple), HeLa cells; parameters: endogenous in cells; host or cells: HeLa; conditions: 10 μM each, 4-24 h with washout after 4 h, or 100 nM-10 μM
Experimental: All cell lines were purchased from ATCC or DSMZ and grown at 37° C. with 5% CO2. Human HeLa cells were cultured in complete growth medium (Dulbecco's modified Eagle's medium (DMEM) supplemented with 10% FBS); MCF7 cells were cultured in complete growth medium (Dulbecco's modified Eagle's medium (DMEM) supplemented with 10% FBS and 0.01 mg/ml human recombinant insulin (Sigma Aldrich); Namalwa and MOLM-13 cells were cultured in complete growth medium (RPMI 1640 medium supplemented with 10% FBS); MV-4-11 were cultured in complete growth medium (Iscove's Modified Dulbecco's medium, supplemented with 10% FBS); HCT116 cells were cultured in complete growth medium (McCoy's 5a Medium supplemented with 10% FBS). For cellular degradation of BRD4 studies, cells were seeded in a 12-well plate at 70-80% confluency, allowed to attach overnight, and incubated with the indicated compounds for the indicated time. When indicated, a 15-minute pretreatment with 10 μM pomalidomide, 10 μM VHL298, 10 μM Nutlin3a, 1 μM MG-132 or 1 μM Carfilzomib was performed before the addition of CURE-PROs. For washout studies, after CURE-PRO treatment, media was aspirated and incubated with complete medium for the indicated time before lysis.
Anti-BRD4 (13440, 1:1,000 dilution for Western Blot and 1:25 dilution for ProteinSimple); Anti-BRD2 (5848 1:1,000 dilution for Western Blot and 1:25 dilution for ProteinSimple); β-Actin (3700, 1:2,000 dilution for Western Blot), β-Actin (4970, 1:50 dilution for ProteinSimple) anti-mouse IgG-HRP, and anti-rabbit IgG-HRP antibodies were purchased Cell Signaling Technology. Anti-GAPDH (600-401-A33, 1:100 dilution for ProteinSimple) was purchased from Rockland Immunochemicals, Inc. Anti-BRD3 (sc-81202, 1:200 dilution for Western Blot) was purchased from Santa Cruz Biotechnology.
WES Simple analysis was performed on WES system (ProteinSimple-Biotechne) according to the manufacturer's instructions. Total protein concentrations of cell lysates were determined by the Pierce BCA kit (Thermo Fisher). 3 μL of 0.3 μg/μL of the protein lysate was loaded onto a 12- to 230-kDa WES assay plate (ProteinSimple) where 300 nL sample was withdrawn through a capillary, subjected to electrophoretic separation of proteins by size, and followed by the simultaneous, HRP-based detection of proteins using the Anti-Rabbit Detection Module (Proteinsimple: #DM-001). The electropherograms were checked then the automatic peak detection was manually corrected if it was required.
HeLa cells (2.5×10^6) were treated for 4-24 hours with the compounds solubilized in DMSO. After 4 hours, indicated points were washed and cells were left in full growth media. Compounds were added at 10 μM each. […]

`CCNC(=O)C[C@@H]1N=C(c2ccc(Cl)cc2)c2cc(-c3cccc(B(O)O)c3)ccc2-n2c(C)nnc21` [BRD-E72, (3-((4S)-6-(4-chlorophenyl)-4-(2-(ethylamino)-2-oxoethyl)-1-methyl-4H-benzo[f][1,2,4]triazolo[4,3-a][1,4]diazepin-8-yl)phenyl)boronic acid] was tested, and the “Loss of cell viability, co-dosed with CRBN ligand 8047” value (Namalwa cells) was “increase in the loss of viability compared to monomer treatment alone; also recorded: marked loss in cell viability”, the “Caspase 3/7 activation, co-dosed with CRBN ligand 8047” value (caspase 3/7) was “demonstrates activation of caspase 3/7; also recorded: marked caspase activation” and the “Degradation of BRD4 in combination with CRBN ligand [drawing 371]” value (BRD4 [1]) was “✓ (A black check mark indicates efficacy of 30% to 70% or higher protein degradation)”. For the same compound, the “BRD4 degradation, BRD ligand with pomalidomide (no 8047)” value (BRD4 [2]; 10 μM) was “failed to induce BRD4 degradation”, the “BRD4 degradation, BRD ligand alone” value (BRD4 [2]; BRD monomer alone, Western blot) was “no change in expression” and the “BRD4 degradation, co-dosing with CRBN ligand 8047 (WES)” value (BRD4 [3]) was “marked BRD4 degradation after 4h with sustained degradation for up to 8h after drugs are washed out”.
